Counter-ions that a name gives are not always drawn. Like-named read-outs stand apart in the source and are kept apart here.
Key:
cytidine deaminase = settings: 37° C.; for yield of deaminated product (HPLC, crude mixture): 5 hours
Procedure: The reaction was performed at 37° C. during […] and stopped with HCl. Then, the crude reaction was filtered through a 10 KDa membrane, and a portion was diluted and analyzed by HPLC under UV-DAD (ultraviolet-diode array detection). Product identification was performed by comparison to a standard sample.
After 5 hours, the reaction was stopped with HCl and a portion of the reaction was diluted and filtered for HPLC and MS analysis.

adenosine deaminase = biological target: T1, adenosine deaminase (Homo sapiens, UniProt P00813); settings: commercially available purified enzyme, analytical conditions; cited from earlier work
T1 sequence (P00813 1-363): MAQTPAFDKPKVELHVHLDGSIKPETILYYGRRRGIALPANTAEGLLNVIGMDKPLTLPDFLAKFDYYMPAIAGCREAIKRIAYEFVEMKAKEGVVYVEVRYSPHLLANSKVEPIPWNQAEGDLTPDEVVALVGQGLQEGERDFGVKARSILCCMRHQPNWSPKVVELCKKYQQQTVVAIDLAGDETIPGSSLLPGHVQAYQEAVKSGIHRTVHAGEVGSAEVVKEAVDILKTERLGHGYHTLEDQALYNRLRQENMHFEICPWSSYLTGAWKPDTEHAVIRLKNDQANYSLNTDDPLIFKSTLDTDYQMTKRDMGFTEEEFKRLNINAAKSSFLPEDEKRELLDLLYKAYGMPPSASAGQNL

[1] = 20 mM substrate, KH2PO4 100 mM pH 7.0, 90 AU cytidine deaminase
[2] = 100 mM substrate, KH2PO4 100 mM pH 7.0, 36-240 AU cytidine deaminase

| Compound | yield of deaminated product (HPLC, crude mixture) (cytidine deaminase; [1]) | yield of deaminated product (HPLC, crude mixture) (cytidine deaminase; [2]) | also measured |
| --- | --- | --- | --- |
| COC(=O)[C@@H](NP(=O)(OC[C@H]1O[C@@H](n2ccc(N)nc2=O)[C@H](O)[C@@H]1O)Oc1ccccc1)C(C)C (stereo partly drawn) [compound 12, methyl ((((2R,3S,4R,5R)-5-(4-amino-2-oxopyrimidin-1 (2H)-yl)-3,4-dihydroxytetrahydrofuran-2-yl)methoxy)(phenoxy)phosphoryl)-L-valinate hydrochloride] | > 70% |  |  |
| COC(=O)[C@@H](NP(=O)(OC[C@H]1O[C@@H](n2cnc(N)nc2=O)C[C@@H]1O)Oc1ccccc1)C(C)C (stereo partly drawn) [compound 21, methyl ((((2R,3S,5R)-5-(4-amino-2-oxo-1,3,5-triazin-1(2H)-yl)-3-hydroxytetrahydrofuran-2-yl)methoxy)(phenoxy)phosphoryl)-L-valinate] |  |  | yield of deaminated product (HPLC) (cytidine deaminase; pH 6, 13 mM substrate, KH2PO4 100 mM, 66 AU cytidine deaminase, 24 hours): higher than 90%; conversion into deaminated product (cytidine deaminase; pH 7, 13 mM substrate, KH2PO4 100 mM, 66 AU cytidine deaminase, 24 hours): quantitatively; conversion into deaminated product (cytidine deaminase; pH 8, 13 mM substrate, KH2PO4 100 mM, 66 AU cytidine deaminase, 24 hours): quantitatively |
| COC(=O)[C@H](CC(C)C)NP(=O)(OC[C@H]1O[C@@H](n2ccc(N)nc2=O)C(F)(F)[C@@H]1O)Oc1ccccc1 (stereo partly drawn) [compound 16, methyl ((((2R,3R,5R)-5-(4-amino-2-oxopyrimidin-1(2H)-yl)-4,4-difluoro-3-hydroxytetrahydrofuran-2-yl)methoxy)(phenoxy)phosphoryl)-L-leucinate] |  | quantitatively |  |
| COC(=O)[C@@H](NP(=O)(OC[C@H]1O[C@@H](n2ccc(N)nc2=O)C(F)(F)[C@@H]1O)Oc1ccccc1)C(C)C (stereo partly drawn) [compound 17, methyl ((((2R,3R,5R)-5-(4-amino-2-oxopyrimidin-1 (2H)-yl)-4,4-difluoro-3-hydroxytetrahydrofuran-2-yl)methoxy)(phenoxy)phosphoryl)-L-valinate] |  | quantitative yield |  |
| COC(=O)[C@H](CC(C)C)NP(=O)(OC[C@H]1O[C@@H](n2ccc(N)nc2=O)[C@H](O)[C@@H]1O)Oc1ccccc1 (stereo partly drawn) [compound 10, methyl ((((2R,3S,4R,5R)-5-(4-amino-2-oxopyrimidin-1(2H)-yl)-3,4-dihydroxytetrahydrofuran-2-yl)methoxy)(phenoxy)phosphoryl)-L-leucinate hydrochloride] | > 70% |  |  |
| Nc1ncnc2c1ncn2[C@H]1C[C@H](O)[C@@H](CO)O1 [deoxyadenosine] |  |  | deamination yield (adenosine deaminase): 59% |
| COC(=O)[C@H](C)NP(=O)(OC[C@H]1O[C@@H](n2ccc(N)nc2=O)[C@H](O)[C@@H]1O)Oc1ccccc1.Cl (stereo partly drawn) [compound 14-Me, methyl ((((2R,3S,4R,5R)-5-(4-amino-2-oxopyrimidin-1 (2H)-yl)-3,4-dihydroxytetrahydrofuran-2-yl)methoxy)(phenoxy)phosphoryl)-L-alaninate hydrochloride] | > 80% |  |  |
| CC(C)OC(=O)[C@H](C)NP(=O)(OC[C@H]1O[C@@H](n2ccc(N)nc2=O)C(F)(F)[C@@H]1O)Oc1ccccc1 (stereo partly drawn) [compound 18, isopropyl ((((2R,3R,5R)-5-(4-amino-2-oxopyrimidin-1 (2H)-yl)-4,4-difluoro-3-hydroxytetrahydrofuran-2-yl)methoxy)(phenoxy)phosphoryl)-L-alaninate] |  | quantitative yield |  |
| CC(C)OC(=O)[C@H](C)NP(=O)(OC[C@H]1O[C@@H](n2ccc(N)nc2=O)[C@H](O)[C@@H]1O)Oc1ccccc1 (stereo partly drawn) [compound 14, isopropyl ((((2R,3S,4R,5R)-5-(4-amino-2-oxopyrimidin-1(2H)-yl)-3,4-dihydroxytetrahydrofuran-2-yl)methoxy)(phenoxy)phosphoryl)-L-alaninate hydrochloride] | quantitatively |  |  |
